Results on 68 compounds are retold here after patent US9181273B2, “Morpholine-spirocyclic piperidine amides as modulators of ion channels” (Vertex Pharmaceuticals Incorporated, priority 2011, dated 2015).

A value given as a limit tells only on which side of the number the result lay.

Sequence of human NaV subtype, like NaV 1.7 (Q15858 whole entry): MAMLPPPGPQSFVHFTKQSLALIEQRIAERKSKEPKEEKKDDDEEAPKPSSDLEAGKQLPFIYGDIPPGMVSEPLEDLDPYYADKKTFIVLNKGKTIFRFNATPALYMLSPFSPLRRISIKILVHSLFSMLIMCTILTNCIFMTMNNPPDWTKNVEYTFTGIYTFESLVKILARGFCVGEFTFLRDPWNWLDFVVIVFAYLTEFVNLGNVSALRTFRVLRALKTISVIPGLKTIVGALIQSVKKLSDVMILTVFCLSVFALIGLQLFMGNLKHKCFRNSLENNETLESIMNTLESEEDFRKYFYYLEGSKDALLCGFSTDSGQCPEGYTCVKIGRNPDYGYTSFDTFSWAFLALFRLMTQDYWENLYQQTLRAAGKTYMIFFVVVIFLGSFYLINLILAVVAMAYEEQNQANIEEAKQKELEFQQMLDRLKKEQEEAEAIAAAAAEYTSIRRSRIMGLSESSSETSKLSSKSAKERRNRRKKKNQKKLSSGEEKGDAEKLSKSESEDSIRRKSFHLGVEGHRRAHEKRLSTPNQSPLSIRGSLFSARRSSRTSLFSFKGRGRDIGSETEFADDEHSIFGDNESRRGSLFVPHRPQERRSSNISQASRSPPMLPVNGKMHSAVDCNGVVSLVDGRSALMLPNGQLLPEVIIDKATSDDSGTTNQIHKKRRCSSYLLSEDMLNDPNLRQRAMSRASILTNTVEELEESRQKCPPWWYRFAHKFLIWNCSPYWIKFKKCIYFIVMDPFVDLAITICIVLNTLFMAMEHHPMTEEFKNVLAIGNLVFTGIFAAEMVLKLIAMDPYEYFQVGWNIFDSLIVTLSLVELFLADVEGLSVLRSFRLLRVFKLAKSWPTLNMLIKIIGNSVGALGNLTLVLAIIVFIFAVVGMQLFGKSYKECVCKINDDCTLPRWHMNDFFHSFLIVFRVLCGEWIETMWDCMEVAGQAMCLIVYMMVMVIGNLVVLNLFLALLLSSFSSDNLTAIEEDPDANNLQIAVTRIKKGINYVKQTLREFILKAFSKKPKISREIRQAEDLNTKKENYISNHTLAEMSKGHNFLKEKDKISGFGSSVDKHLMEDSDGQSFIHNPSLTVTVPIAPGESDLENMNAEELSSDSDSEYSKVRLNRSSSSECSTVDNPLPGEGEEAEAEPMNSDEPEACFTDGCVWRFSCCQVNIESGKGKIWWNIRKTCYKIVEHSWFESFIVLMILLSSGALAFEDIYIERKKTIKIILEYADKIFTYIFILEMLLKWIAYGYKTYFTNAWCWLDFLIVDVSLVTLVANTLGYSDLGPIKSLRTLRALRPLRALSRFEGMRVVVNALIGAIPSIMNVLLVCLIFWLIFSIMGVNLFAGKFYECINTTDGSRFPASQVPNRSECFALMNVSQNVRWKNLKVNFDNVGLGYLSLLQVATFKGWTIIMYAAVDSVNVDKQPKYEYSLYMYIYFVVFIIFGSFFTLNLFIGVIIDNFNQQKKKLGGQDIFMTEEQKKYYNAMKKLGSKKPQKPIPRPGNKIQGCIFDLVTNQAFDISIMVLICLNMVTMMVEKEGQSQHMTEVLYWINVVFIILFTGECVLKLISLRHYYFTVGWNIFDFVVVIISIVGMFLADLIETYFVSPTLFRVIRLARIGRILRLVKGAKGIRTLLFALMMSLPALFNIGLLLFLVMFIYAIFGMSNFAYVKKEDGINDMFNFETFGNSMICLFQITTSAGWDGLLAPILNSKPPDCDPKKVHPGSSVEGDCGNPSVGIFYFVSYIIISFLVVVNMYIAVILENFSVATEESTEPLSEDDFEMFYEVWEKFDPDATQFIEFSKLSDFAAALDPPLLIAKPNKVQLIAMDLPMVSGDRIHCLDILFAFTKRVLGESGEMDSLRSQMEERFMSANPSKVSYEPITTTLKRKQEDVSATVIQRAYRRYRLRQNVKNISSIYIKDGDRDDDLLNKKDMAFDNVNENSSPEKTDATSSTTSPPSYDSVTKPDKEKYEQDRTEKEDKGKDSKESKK

One test addresses human NaV subtype, like NaV 1.7 (Homo sapiens, UniProt Q15858). The test can be described thus: E-VIPR optical membrane potential assay with electrical stimulation. In kind it is cell-based.
Settings: not given
`COCC1CN(c2ncccn2)CC2(CCN(C(=O)c3ccc(C(C)(C)C)c(OC)c3)CC2)O1` (centres unmarked) [Compound 191] gave an IC50 of less than 2000 nM.
Still for that read-out and setting: for `Cc1cc(C(=O)N2CCC3(CC2)CN(CC(F)(F)F)CC(c2cc[nH]n2)O3)ccc1OC(C)C` (centres unmarked) [Compound 211] the value was less than 2000 nM.

The same test, now with this note: active against one or more sodium channels; assay and NaV subtype not specified for Table 3; read-out: IC50 Binned Activity Data.
For `CC(C)Oc1ccc(C(=O)N2CCC3(CC2)CN(CC(F)F)CC(c2ncc(C(C)C)o2)O3)cc1F` (centres unmarked) [Compound 159], the IC50 is more than 5000 nM.
With `COCC1CN(C(C)(C)C)CC2(CCN(C(=O)c3ccc(OC(C)C)c(C)c3)CC2)O1` (centres unmarked) [Compound 160], the IC50 is 2000 to 5000 nM.
The same measure, in the same setting: for `COCC1CN(c2ncccn2)CC2(CCN(C(=O)c3ccc(C(C)(C)O)cc3)CC2)O1` (centres unmarked) [Compound 161] the value was more than 5000 nM.
On the same count and under the same terms, the value for `COc1cc(C(=O)N2CCC3(CC2)CN(CC(F)F)CC(c2cccc(C)n2)O3)cc(F)c1OC(C)C` (centres unmarked) [Compound 162] was more than 5000 nM; that for `Cc1cc(C(=O)N2CCC3(CC2)CNCC(c2ccccc2)O3)ccc1OC(C)C` (centres unmarked) [Compound 163] was more than 5000 nM; that for `COCC1CN(c2ncccn2)CC2(CCN(C(=O)c3ccccc3OC(F)F)CC2)O1` (centres unmarked) [Compound 164] was more than 5000 nM.
Turning to `CC(C)CS(=O)(=O)c1ccc(C(=O)N2CCC3(CC2)CN(CC(F)(F)F)CC(c2ccccc2)O3)cc1` (centres unmarked) [Compound 165], the IC50 is less than 2000 nM.
In the case of `CCN1CC(c2ccccc2)OC2(CCN(C(=O)c3ccc(OC(C)C)c(CO)c3)CC2)C1` (centres unmarked) [Compound 166], the IC50 was 2000 to 5000 nM.
`CCN1CC(c2ccccc2)OC2(CCN(C(=O)c3ccc(S(=O)(=O)NC4CC4)cc3)CC2)C1` (centres unmarked) [Compound 167]: the IC50 is more than 5000 nM.
Same read-out and setting: the value for `Cc1cc(C(=O)N2CCC3(CC2)CN(CC(F)F)CC(c2ccccc2)O3)ccc1C(C)(C)O` (centres unmarked) [Compound 168] was less than 2000 nM; that for `COCC1CN(Cc2ccccc2)CC2(CCN(C(=O)c3ccc(OC(C)C)c(C)c3)CC2)O1` (centres unmarked) [Compound 169] was less than 2000 nM.
With `Cc1cc(C(=O)N2CCC3(CC2)CN(CC(F)F)CC(c2ccc(F)cc2)O3)ccc1OCC(C)(C)O` (centres unmarked) [Compound 170], the IC50 is less than 2000 nM.
Same read-out and setting: for `Cc1cc(C(=O)N2CCC3(CC2)CN(c2ncccn2)CC(COC(F)F)O3)ccc1OC(C)C` (centres unmarked) [Compound 171] the value was less than 2000 nM; for `COc1cc(C(=O)N2CCC3(CC2)CN(CC(F)(F)F)CC(c2ccccc2)O3)ccc1S(C)(=O)=O` (centres unmarked) [Compound 172], more than 5000 nM.
The same measure, in the same setting: for `COCC1CN(c2ncccn2)CC2(CCN(C(=O)c3ccc(OC(C)C)c(OC)c3)CC2)O1` (centres unmarked) [Compound 173] the value was 2000 to 5000 nM.
Regarding `COCCCN1CC(COC)OC2(CCN(C(=O)c3ccc(OC(C)C)c(C)c3)CC2)C1` (centres unmarked) [Compound 175], the IC50 is less than 2000 nM.
With `CCC1CN(c2ccccn2)CC2(CCN(C(=O)c3ccc(C4(O)CCC4)c(C)c3)CC2)O1` (centres unmarked) [Compound 176], the IC50 was less than 2000 nM.
Take `CC(C)Oc1ccc(C(=O)N2CCC3(CC2)CN(CC(F)(F)F)CC(c2ccccc2)O3)nc1` (centres unmarked) [Compound 177]: the IC50 was less than 2000 nM.
In the case of `COCC1CN(CC(F)F)CC2(CCN(C(=O)c3ccc(OC(C)C)c(C)c3)CC2)O1` (centres unmarked) [Compound 178], the IC50 is less than 2000 nM.
Consider `Cc1cc(C(=O)N2CCC3(CC2)CN(Cc2ccccc2)CC(C(C)(C)O)O3)ccc1OC(C)C` (centres unmarked) [Compound 179], for which the IC50 was more than 5000 nM.
With `COCC1CN(c2nccs2)CC2(CCN(C(=O)c3ccc(OC(C)C)c(C)c3)CC2)O1` (centres unmarked) [Compound 180], the IC50 is less than 2000 nM.
The same measure, in the same setting: for `Cc1cc(C(=O)N2CCC3(CC2)CN(CC(F)(F)F)CC(Cn2cccn2)O3)ccc1OC(C)C` (centres unmarked) [Compound 181] the value was more than 5000 nM.
As to `COCC1CN(c2ccc(OC)cc2)CC2(CCN(C(=O)c3ccc(OC(C)C)c(C)c3)CC2)O1` (centres unmarked) [Compound 183], the IC50 was less than 2000 nM.
Consider `COCC1CN(CCSC)CC2(CCN(C(=O)c3ccc(OC(C)C)c(C)c3)CC2)O1` (centres unmarked) [Compound 184], for which the IC50 is less than 2000 nM.
`CC#CCN1CC2(CCN(C(=O)c3ccc(OC(C)C)c(C)c3)CC2)OCC1(C)C` [Compound 185]: the IC50 was more than 5000 nM.
On to `COc1ccc(C(=O)N2CCC3(CC2)CN(CCC(C)C)C(=O)C(c2ccccc2)O3)cc1C(F)(F)F` (centres unmarked) [Compound 186], for which the IC50 was less than 2000 nM.
On to `COCC1CN(c2ncc(F)cn2)CC2(CCN(C(=O)c3ccc(OC(C)C)c(C)c3)CC2)O1` (centres unmarked) [Compound 187], for which the IC50 is less than 2000 nM.
Consider `COCCN1CC(COC)OC2(CCN(C(=O)c3ccc(OC(C)C)c(C)c3)CC2)C1` (centres unmarked) [Compound 188], for which the IC50 was in the range of 2000 to 5000 nM.
Take `Cc1cc(C(=O)N2CCC3(CC2)CN(CC(F)(F)F)CC(c2ccccc2)O3)ccc1S(C)(=O)=O` (centres unmarked) [Compound 189]: the IC50 was less than 2000 nM.
Turning to `CC(C)Oc1ccc(C(=O)N2CCC3(CC2)CN(CC(F)F)CC(c2ccccc2Cl)O3)cc1F` (centres unmarked) [Compound 190], the IC50 was less than 2000 nM.
Same read-out and setting: for `CCN1CC(c2ccccc2)OC2(CCN(C(=O)c3ccc(OC(C)C)c(OC)c3)CC2)C1` (centres unmarked) [Compound 192] the value was less than 2000 nM; for `COCC1CN(CC(=O)C(C)(C)C)CC2(CCN(C(=O)c3ccc(OC(C)C)c(C)c3)CC2)O1` (centres unmarked) [Compound 193], less than 2000 nM.
Regarding `CC(C)Oc1ccc(C(=O)N2CCC3(CC2)CN(CC(F)(F)F)CC(c2ccccc2)O3)cc1CO` (centres unmarked) [Compound 194], the IC50 is less than 2000 nM.
Turning to `Cc1cccc(C2CN(CC(F)F)CC3(CCN(C(=O)c4ccc(OC(C)C)c(F)c4)CC3)O2)n1` (centres unmarked) [Compound 195], the IC50 was less than 2000 nM.
As to `Cc1cnc(C2CN(CC(F)(F)F)CC3(CCN(C(=O)c4ccc(OC(C)C)c(C)c4)CC3)O2)s1` (centres unmarked) [Compound 196], the IC50 was less than 2000 nM.
As for `COCC1CN(c2ncccn2)CC2(CCN(C(=O)c3ccc(C(O)C(C)C)cc3)CC2)O1` (centres unmarked) [Compound 197], the IC50 was 2000 to 5000 nM.
In the case of `COCC1CN(c2ncccn2)CC2(CCN(C(=O)c3ccc(S(=O)(=O)NC4CC4)cc3)CC2)O1` (centres unmarked) [Compound 198], the half-maximal inhibitory concentration (IC50) was more than 5000 nM.
The same measure, in the same setting: for `Cc1cc(C(=O)N2CCC3(CC2)CN(CC(F)(F)F)CC(c2ccccc2)O3)ccc1OCCO` (centres unmarked) [Compound 199] the value was 2000 to 5000 nM.
`Cc1cc(C(=O)N2CCC3(CC2)CN(CC(F)(F)F)CC(c2ccccc2)O3)ccc1S(=O)(=O)C(C)C` (centres unmarked) [Compound 200]: the IC50 is less than 2000 nM.
In the case of `COCC1CN(C2CCCCCC2)CC2(CCN(C(=O)c3ccc(OC(C)C)c(C)c3)CC2)O1` (centres unmarked) [Compound 201], the IC50 is less than 2000 nM.
Same read-out and setting: for `Cc1cc(C(=O)N2CCC3(CC2)CN(CC(F)F)CC(c2ccc(F)cc2)O3)ccc1S(C)(=O)=O` (centres unmarked) [Compound 202] the value was more than 5000 nM; for `CCOc1cc(C(=O)N2CCC3(CC2)CN(CC)CC(c2ccccc2)O3)ccc1CO` (centres unmarked) [Compound 203], 2000 to 5000 nM; for `COCC1CN(C2CCCCC2)CC2(CCN(C(=O)c3ccc(OC(C)C)c(C)c3)CC2)O1` (centres unmarked) [Compound 204], less than 2000 nM.
The same measure, in the same setting: the value for `CCCN1CC(COC)OC2(CCN(C(=O)c3ccc(OC(C)C)c(C)c3)CC2)C1` (centres unmarked) [Compound 205] was less than 2000 nM.
Still for that read-out and setting: for `COCC1CN(CC2CCCCC2)CC2(CCN(C(=O)c3ccc(OC(C)C)c(C)c3)CC2)O1` (centres unmarked) [Compound 206] the value was less than 2000 nM; for `COCC1CN(c2ncccn2)CC2(CCN(C(=O)c3ccc(S(=O)(=O)C4CC4)cc3)CC2)O1` (centres unmarked) [Compound 208], more than 5000 nM; for `Cc1cc(C(=O)N2CCC3(CC2)CN(CC(F)F)CC(c2ncco2)O3)ccc1OC(C)C` (centres unmarked) [Compound 209], less than 2000 nM.
On to `COc1cc(C(=O)N2CCC3(CC2)CN(CC(F)F)CC(c2cc[nH]n2)O3)ccc1OC(C)C` (centres unmarked) [Compound 210], for which the IC50 was more than 5000 nM.
As to `Cc1nc(C(=O)N2CCC3(CC2)CN(CC#N)CC(c2ccccc2)O3)ccc1OC(C)C` (centres unmarked) [Compound 212], the half-maximal inhibitory concentration (IC50) was less than 2000 nM.
In the case of `CC(C)Oc1ccc(C(=O)N2CCC3(CC2)CN(CC(F)(F)F)CC(c2ccccc2)O3)cc1Cl` (centres unmarked) [Compound 213], the concentration for half-maximal inhibition (IC50) is less than 2000 nM.
Regarding `CCc1cnc(C2CN(CC(F)F)CC3(CCN(C(=O)c4ccc(OC(C)C)c(C)c4)CC3)O2)o1` (centres unmarked) [Compound 214], the IC50 was in the range of 2000 to 5000 nM.
Regarding `COCC1CN(CC(=O)OC)CC2(CCN(C(=O)c3ccc(OC(C)C)c(C)c3)CC2)O1` (centres unmarked) [Compound 215], the IC50 was in the range of 2000 to 5000 nM.
As to `COCC1CN(c2ncccn2)CC2(CCN(C(=O)c3ccc(OCC(C)(C)O)c(C)c3)CC2)O1` (centres unmarked) [Compound 216], the IC50 lay within 2000 to 5000 nM.
Take `CC#CCN1CC(CC)OC2(CCN(C(=O)c3ccc(OCCC)c(C)c3)CC2)C1` (centres unmarked) [Compound 217]: the IC50 was less than 2000 nM.
On to `CC#CCN1CC(COC)OC2(CCN(C(=O)c3ccc(OC(C)C)c(C)c3)CC2)C1` (centres unmarked) [Compound 218], for which the IC50 was less than 2000 nM.
On to `COc1cc(C(=O)N2CCC3(CC2)CN(CC(F)F)CC(c2ccccc2)O3)ccc1OC(C)C` (centres unmarked) [Compound 219], for which the IC50 was less than 2000 nM.
Same read-out and setting: the value for `COCC1CN(C2CCC(F)(F)CC2)CC2(CCN(C(=O)c3ccc(OC(C)C)c(C)c3)CC2)O1` (centres unmarked) [Compound 220] was less than 2000 nM.
Regarding `CC(C)Oc1ccc(C(=O)N2CCC3(CC2)CN(CC(F)F)CC(c2ccccn2)O3)cc1F` (centres unmarked) [Compound 221], the IC50 is less than 2000 nM.
Still for that read-out and setting: the value for `CC(C)Oc1ccc(C(=O)N2CCC3(CC2)CN(CC(F)F)CC(c2ccccn2)O3)cc1Cl` (centres unmarked) [Compound 222] was less than 2000 nM.
Same read-out and setting: for `COCC1CN(c2cccc(C(F)(F)F)c2)CC2(CCN(C(=O)c3ccc(C4(O)CCC4)cc3)CC2)O1` (centres unmarked) [Compound 223] the value was less than 2000 nM.
With `COc1cc(C(=O)N2CCC3(CC2)CN(CC(F)F)CC(c2ccccc2)O3)ccc1C(C)(C)O` (centres unmarked) [Compound 224], the IC50 is less than 2000 nM.
Same read-out and setting: for `COCC1CN(c2cccc(C(F)(F)F)c2)CC2(CCN(C(=O)c3ccc(OCC(C)(C)O)c(C)c3)CC2)O1` (centres unmarked) [Compound 225] the value was less than 2000 nM; for `CC(C)Oc1ccc(C(=O)N2CCC3(CC2)CN(CC(F)F)CC(c2cc[nH]n2)O3)cc1F` (centres unmarked) [Compound 226], 2000 to 5000 nM; for `CCN1CC(c2ccccc2)OC2(CCN(C(=O)c3ccc(OC(C)C)c(F)c3)CC2)C1` (centres unmarked) [Compound 227], less than 2000 nM.
Take `COCC1CN(c2cccc(C#N)c2)CC2(CCN(C(=O)c3ccc(OC(C)C)c(C)c3)CC2)O1` (centres unmarked) [Compound 228]: the IC50 is less than 2000 nM.
Turning to `CCn1ccc(C2CN(CC(F)F)CC3(CCN(C(=O)c4ccc(OC(C)C)c(C)c4)CC3)O2)n1` (centres unmarked) [Compound 229], the IC50 was in the range of 2000 to 5000 nM.

In general, IC50 refers to the midpoint of a concentration-inhibition curve.
